The values below are quoted from earlier work in US11273125B2, “Preparation of desiccated liposomes for use in compressible delivery systems” (SMARTEK INTERNATIONAL LLC, priority 2017, dated 2022).

The conditions of the data set: poor bioavailability of the unformulated compound; route and species not given.

On to `COc1ccc2c(=O)cc(-c3ccccc3)oc2c1` [7-methoxyflavone], for which the bioavailability result is “approximately 5%”.
